Test results reported in PubChem BioAssay AID2060326 (Molecular Pharmacology Branch, DTP, NCI, 2025).
pIC50: −log10 of the molar value. Where “and” joins values, the source holds several entries; their conditions need not be identical. Identical values can stand only once.

Test system: MDA-MB-468 multi-cell spheroids, viability
Assay: Anticancer human tumor MDA-MB-468 cell line growth inhibition [IpAb];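 further: spheroids exposed to agents for seven days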;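 on viability, T/C: 100% = DMSO vehicle control viability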
Conditions: for viability, T/C: stronger effect = lower value
In short: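 Combinations with ipatasertib or abemaciclib were tested on tumour spheroids holding HUVEC (25%) and MSC (15%) alongside 60% malignant cells. Top concentration was at or near clinical Cmax (10 microM if undefined), descending in half-log steps.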

[1] = curve of first compound, second compound 0.1 µM
[2] = curve of first compound, second compound 0.316 µM
[3] = curve of first compound, second compound 1 µM
[4] = curve of first compound, second compound 3.16 µM
[5] = curve of first compound, second compound 10 µM
[6] = second compound 0.1 µM, first compound 0.0316 µM
[7] = second compound 0.1 µM, first compound 0.1 µM
[8] = second compound 0.1 µM, first compound 0.316 µM
[9] = second compound 0.1 µM, first compound 1 µM
[10] = second compound 0.1 µM, first compound 3.16 µM
[11] = second compound 0.1 µM, first compound 10 µM
[12] = second compound 0.316 µM, first compound 0.0316 µM
[13] = second compound 0.316 µM, first compound 0.1 µM
[14] = second compound 0.316 µM, first compound 0.316 µM
[15] = second compound 0.316 µM, first compound 1 µM
[16] = second compound 0.316 µM, first compound 3.16 µM
[17] = second compound 0.316 µM, first compound 10 µM
[18] = second compound 1 µM, first compound 0.0316 µM
[19] = second compound 1 µM, first compound 0.1 µM
[20] = second compound 1 µM, first compound 0.316 µM
[21] = second compound 1 µM, first compound 1 µM
[22] = second compound 1 µM, first compound 3.16 µM
[23] = second compound 1 µM, first compound 10 µM
[24] = second compound 3.16 µM, first compound 0.0316 µM
[25] = second compound 3.16 µM, first compound 0.1 µM
[26] = second compound 3.16 µM, first compound 0.316 µM
[27] = second compound 3.16 µM, first compound 1 µM
[28] = second compound 3.16 µM, first compound 3.16 µM
[29] = second compound 3.16 µM, first compound 10 µM
[30] = second compound 10 µM, first compound 0.0316 µM
[31] = second compound 10 µM, first compound 0.1 µM
[32] = second compound 10 µM, first compound 0.316 µM
[33] = second compound 10 µM, first compound 1 µM
[34] = second compound 10 µM, first compound 3.16 µM
[35] = second compound 10 µM, first compound 10 µM

Cn1nccc1Nc1nccc(-c2ccn(C(CO)c3ccc(Cl)c(F)c3)c(=O)c2)n1 (configuration not stated)
viability, T/C (compound 0.0316 µM): 84.7% and 94.8%
viability, T/C (compound 0.1 µM): 91.9% and 98.6%
viability, T/C (compound 0.316 µM): 100% and 83.9%
viability, T/C (compound 1 µM): 84.2% and 81.8%
viability, T/C (compound 3.16 µM): 68.4% and 64.4%
viability, T/C (compound 10 µM): 5.12% and 13.2%
pIC50 (curve of compound): 5.36 and 5.37

C=CCn1c(=O)c2cnc(Nc3ccc(N4CCN(C)CC4)cc3)nc2n1-c1cccc(C(C)(C)O)n1 + CC(C)NCC(C(=O)N1CCN(c2ncnc3c2C(C)CC3O)CC1)c1ccc(Cl)cc1
pIC50 [1]: 6.42
pIC50 [2]: 6.67
pIC50 [3]: 7.22
pIC50 [4]: > 7.50
pIC50 [5]: > 7.50
viability, T/C [6]: 101%
viability, T/C [7]: 89.3%
viability, T/C [8]: 59.5%
viability, T/C [9]: 5.21%
viability, T/C [10]: 3.03%
viability, T/C [11]: 2.74%
viability, T/C [12]: 78.6%
viability, T/C [13]: 63.7%
viability, T/C [14]: 42.6%
viability, T/C [15]: 2.96%
viability, T/C [16]: 3.13%
viability, T/C [17]: 2.21%
viability, T/C [18]: 59.4%
viability, T/C [19]: 40.8%
viability, T/C [20]: 25.7%
viability, T/C [21]: 2.27%
viability, T/C [22]: 2.93%
viability, T/C [23]: 1.68%
viability, T/C [24]: 32.1%
viability, T/C [25]: 27.2%
viability, T/C [26]: 15.7%
viability, T/C [27]: 1.82%
viability, T/C [28]: 3.18%
viability, T/C [29]: 1.47%
viability, T/C [30]: 17.8%
viability, T/C [31]: 14%
viability, T/C [32]: 9.24%
viability, T/C [33]: 1.81%
viability, T/C [34]: 2.55%
viability, T/C [35]: 1.3%

C=CC(=O)N1CCN(c2nc(=O)n(-c3c(C)ccnc3C(C)C)c3nc(-c4c(O)cccc4F)c(F)cc23)C(C)C1 (configuration not stated) + CC(C)NCC(C(=O)N1CCN(c2ncnc3c2C(C)CC3O)CC1)c1ccc(Cl)cc1
pIC50 [1]: 5.15
pIC50 [2]: 5.31
pIC50 [3]: 5.38
pIC50 [4]: > 7.50
pIC50 [5]: > 7.50
viability, T/C [6]: 115%
viability, T/C [7]: 123%
viability, T/C [8]: 118%
viability, T/C [9]: 105%
viability, T/C [10]: 78.2%
viability, T/C [11]: 37.8%
viability, T/C [12]: 94.4%
viability, T/C [13]: 69.8%
viability, T/C [14]: 68.4%
viability, T/C [15]: 71.6%
viability, T/C [16]: 67.3%
viability, T/C [17]: 27.4%
viability, T/C [18]: 64.5%
viability, T/C [19]: 55.9%
viability, T/C [20]: 62.4%
viability, T/C [21]: 57.6%
viability, T/C [22]: 59.8%
viability, T/C [23]: 19.2%
viability, T/C [24]: 42.3%
viability, T/C [25]: 41.2%
viability, T/C [26]: 44.5%
viability, T/C [27]: 39.6%
viability, T/C [28]: 29.6%
viability, T/C [29]: 8.37%
viability, T/C [30]: 19.5%
viability, T/C [31]: 22.1%
viability, T/C [32]: 20.5%
viability, T/C [33]: 19.3%
viability, T/C [34]: 13.8%
viability, T/C [35]: 5.04%

COc1c(OCCCN2CCOCC2)ccc2c3n(c(=NC(=O)c4cnc(N)nc4)nc12)CCN3 + CCN1CCN(Cc2ccc(Nc3ncc(F)c(-c4cc(F)c5nc(C)n(C(C)C)c5c4)n3)nc2)CC1
pIC50 (curve of first compound, second compound 0.01 µM): 6.84
pIC50 (curve of first compound, second compound 0.0316 µM): 6.96
pIC50 [1]: 7.04
pIC50 [2]: 6.95
pIC50 [3]: 7.12
viability, T/C (second compound 0.01 µM, first compound 0.00316 µM): 101%
viability, T/C (second compound 0.01 µM, first compound 0.01 µM): 79.4%
viability, T/C (second compound 0.01 µM, first compound 0.0316 µM): 78.6%
viability, T/C (second compound 0.01 µM, first compound 0.1 µM): 66.9%
viability, T/C (second compound 0.01 µM, first compound 0.316 µM): 20.9%
viability, T/C (second compound 0.01 µM, first compound 1 µM): 3.88%
viability, T/C (second compound 0.0316 µM, first compound 0.00316 µM): 93%
viability, T/C (second compound 0.0316 µM, first compound 0.01 µM): 85.6%
viability, T/C (second compound 0.0316 µM, first compound 0.0316 µM): 73.5%
viability, T/C (second compound 0.0316 µM, first compound 0.1 µM): 54.7%
viability, T/C (second compound 0.0316 µM, first compound 0.316 µM): 21.9%
viability, T/C (second compound 0.0316 µM, first compound 1 µM): 3.58%
viability, T/C (second compound 0.1 µM, first compound 0.00316 µM): 109%
viability, T/C (second compound 0.1 µM, first compound 0.01 µM): 93.8%
viability, T/C [6]: 78.4%
viability, T/C [7]: 50.1%
viability, T/C [8]: 16.1%
viability, T/C [9]: 3.39%
viability, T/C (second compound 0.316 µM, first compound 0.00316 µM): 80.6%
viability, T/C (second compound 0.316 µM, first compound 0.01 µM): 98.7%
viability, T/C [12]: 86.8%
viability, T/C [13]: 50.8%
viability, T/C [14]: 21.2%
viability, T/C [15]: 6.79%
viability, T/C (second compound 1 µM, first compound 0.00316 µM): 75%
viability, T/C (second compound 1 µM, first compound 0.01 µM): 73.6%
viability, T/C [18]: 59.7%
viability, T/C [19]: 49%
viability, T/C [20]: 21%
viability, T/C [21]: 7.2%
